Measurements published in PubChem BioAssay AID190 (DTP/NCI, 2004).
“And” between values parts separate entries of the source, which are not always exact repeats. Identical values can stand only once. Toxic doses and inconclusive results are not listed.

System: AKR/Lw mice, AKR lymphoma ip, median survival T/C
Experiment: NCI In Vivo Anticancer Drug Screen. Data for tumor model Lymphoma AKR (Transplanted) (intraperitoneal) in AKR/Lw mice
Conditions: endpoint: median survival time, higher = longer survival
Description: The antitumor activity of compounds was measured in mice bearing transplantable tumors. Survival or tumor size were measured and the results are expressed as the measurement made in the treated group (T) divided by the measurement made in the vehicle treated control group (C). The tumor model used in this assay is Lymphoma AKR (Transplanted) (intraperitoneal) in AKR/Lw mice

[1] = dose: 6.0 mg/kg/injection, schedule: Q01DX009 (ip), vehicle: saline
[2] = dose: 12.5 mg/kg/injection, schedule: Q01DX001 (ip), vehicle: saline
[3] = dose: 25.0 mg/kg/injection, schedule: Q01DX001 (ip), vehicle: saline
[4] = dose: 100.0 mg/kg/injection, schedule: Q01DX001 (ip), vehicle: Klucel (hydroxypropylcellulose) (HPC)
[5] = dose: 100.0 mg/kg/injection, schedule: Q04DX003 (ip), vehicle: Klucel (hydroxypropylcellulose) (HPC)
[6] = dose: 100.0 mg/kg/injection, schedule: Q04DX003 (ip), vehicle: saline
[7] = dose: 200.0 mg/kg/injection, schedule: Q01DX001 (ip), vehicle: Klucel (hydroxypropylcellulose) (HPC)
[8] = dose: 200.0 mg/kg/injection, schedule: Q04DX003 (ip), vehicle: Klucel (hydroxypropylcellulose) (HPC)
[9] = dose: 400.0 mg/kg/injection, schedule: Q01DX001 (ip), vehicle: Klucel (hydroxypropylcellulose) (HPC)
[10] = dose: 400.0 mg/kg/injection, schedule: Q04DX003 (ip), vehicle: Klucel (hydroxypropylcellulose) (HPC)
[11] = dose: 25.0 mg/kg/injection, schedule: Q04DX003 (ip), vehicle: saline
[12] = dose: 50.0 mg/kg/injection, schedule: Q01DX001 (ip), vehicle: saline
[13] = dose: 50.0 mg/kg/injection, schedule: Q04DX003 (ip), vehicle: saline
[14] = dose: 100.0 mg/kg/injection, schedule: Q01DX001 (ip), vehicle: saline
[15] = dose: 200.0 mg/kg/injection, schedule: Q01DX001 (ip), vehicle: saline
[16] = dose: 400.0 mg/kg/injection, schedule: Q01DX001 (ip), vehicle: saline

Question: Which T/C (dose: 1.2 mg/kg/injection, schedule: Q01DX009 (ip), vehicle: Klucel (hydroxypropylcellulose) (HPC)) does the source give for `Cc1c2ccncc2c(C)c2c1[nH]c1ccccc12` here?
Answer: 87 % of control

Question: What about the T/C (dose: 1.25 mg/kg/injection, schedule: Q01DX009 (ip), vehicle: saline) of the same compound?
Answer: 165 % of control

Question: What about the T/C (dose: 1.5 mg/kg/injection, schedule: Q01DX009 (ip), vehicle: saline) of the same compound?
Answer: 90 % of control and 118 % of control

Question: What about the T/C (dose: 3.0 mg/kg/injection, schedule: Q01DX009 (ip), vehicle: saline) of the same compound?
Answer: 104 % of control and 121 % of control

Question: What about the T/C (dose: 5.0 mg/kg/injection, schedule: Q01DX009 (ip), vehicle: saline) of the same compound?
Answer: 111 % of control

Question: What about the T/C [1] of the same compound?
Answer: 116 % of control

Question: And the T/C (dose: 7.5 mg/kg/injection, schedule: Q04DX003 (ip), vehicle: Klucel (hydroxypropylcellulose) (HPC))?
Answer: 88 % of control

Question: What about the T/C (dose: 7.5 mg/kg/injection, schedule: Q04DX003 (ip), vehicle: saline) of the same compound?
Answer: 96 % of control

Question: And the T/C (dose: 10.0 mg/kg/injection, schedule: Q01DX009 (ip), vehicle: saline)?
Answer: 152 % of control

Question: What about the T/C (dose: 12.5 mg/kg/injection, schedule: Q01DX001 (ip), vehicle: Klucel (hydroxypropylcellulose) (HPC)) of the same compound?
Answer: 97 % of control

Question: What about the T/C [2] of the same compound?
Answer: 124 % of control

Question: What about the T/C (dose: 15.0 mg/kg/injection, schedule: Q01DX009 (ip), vehicle: Klucel (hydroxypropylcellulose) (HPC)) of the same compound?
Answer: 103 % of control

Question: And the T/C (dose: 15.0 mg/kg/injection, schedule: Q04DX003 (ip), vehicle: Klucel (hydroxypropylcellulose) (HPC))?
Answer: 119 % of control

Question: What about the T/C (dose: 15.0 mg/kg/injection, schedule: Q04DX003 (ip), vehicle: saline) of the same compound?
Answer: 112 % of control

Question: What about the T/C (dose: 18.75 mg/kg/injection, schedule: Q04DX003 (ip), vehicle: saline) of the same compound?
Answer: 111 % of control and 116 % of control and 117 % of control

Question: What about the T/C (dose: 18.8 mg/kg/injection, schedule: Q04DX003 (ip), vehicle: Klucel (hydroxypropylcellulose) (HPC)) of the same compound?
Answer: 105 % of control

Question: And the T/C (dose: 20.0 mg/kg/injection, schedule: Q01DX009 (ip), vehicle: Klucel (hydroxypropylcellulose) (HPC))?
Answer: 86 % of control

Question: And the T/C (dose: 20.0 mg/kg/injection, schedule: Q01DX009 (ip), vehicle: saline)?
Answer: 111 % of control

Question: What about the T/C (dose: 20.0 mg/kg/injection, schedule: Q04DX003 (ip), vehicle: Klucel (hydroxypropylcellulose) (HPC)) of the same compound?
Answer: 119 % of control

Question: And the T/C (dose: 25.0 mg/kg/injection, schedule: Q01DX001 (ip), vehicle: Klucel (hydroxypropylcellulose) (HPC))?
Answer: 123 % of control

Question: What about the T/C [3] of the same compound?
Answer: 120 % of control

Question: And the T/C (dose: 25.0 mg/kg/injection, schedule: Q01DX005 (ip), vehicle: water)?
Answer: 263 % of control

Question: What about the T/C (dose: 25.0 mg/kg/injection, schedule: Q04DX003 (ip), vehicle: Klucel (hydroxypropylcellulose) (HPC)) of the same compound?
Answer: 153 % of control

Question: And the T/C (dose: 30.0 mg/kg/injection, schedule: Q04DX003 (ip), vehicle: Klucel (hydroxypropylcellulose) (HPC))?
Answer: 104 % of control and 111 % of control

Question: What about the T/C (dose: 35.0 mg/kg/injection, schedule: Q04DX003 (ip), vehicle: Klucel (hydroxypropylcellulose) (HPC)) of the same compound?
Answer: 116 % of control

Question: What about the T/C (dose: 50.0 mg/kg/injection, schedule: Q01DX001 (ip), vehicle: Klucel (hydroxypropylcellulose) (HPC)) of the same compound?
Answer: 118 % of control

Question: And the T/C (dose: 50.0 mg/kg/injection, schedule: Q01DX005 (ip), vehicle: water)?
Answer: 197 % of control

Question: What about the T/C (dose: 50.0 mg/kg/injection, schedule: Q04DX003 (ip), vehicle: Klucel (hydroxypropylcellulose) (HPC)) of the same compound?
Answer: 153 % of control

Question: And the T/C (dose: 50.0 mg/kg/injection, schedule: Q04DX003 (ip), vehicle: water)?
Answer: 226 % of control

Question: And the T/C (dose: 75.0 mg/kg/injection, schedule: Q01DX001 (ip), vehicle: Klucel (hydroxypropylcellulose) (HPC))?
Answer: 123 % of control

Question: What about the T/C [4] of the same compound?
Answer: 111 % of control and 121 % of control

Question: What about the T/C [5] of the same compound?
Answer: 107 % of control

Question: What about the T/C [6] of the same compound?
Answer: 100 % of control

Question: What about the T/C (dose: 100.0 mg/kg/injection, schedule: Q04DX003 (ip), vehicle: water) of the same compound?
Answer: 315 % of control

Question: And the T/C (dose: 150.0 mg/kg/injection, schedule: Q01DX001 (ip), vehicle: Klucel (hydroxypropylcellulose) (HPC))?
Answer: 102 % of control

Question: And the T/C (dose: 150.0 mg/kg/injection, schedule: Q01DX001 (ip), vehicle: saline)?
Answer: 115 % of control

Question: With `Clc1ccc(/C(=[C](\[Hg]/[C](=C(\c2ccccc2)c2ccc(Cl)cc2)c2ccccc2)c2ccccc2)c2ccccc2)cc1` as the compound, how does the T/C [4] read?
Answer: 97 % of control

Question: And the T/C [5]?
Answer: 100 % of control

Question: What about the T/C [7] of the same compound?
Answer: 107 % of control

Question: What about the T/C [8] of the same compound?
Answer: 88 % of control

Question: What about the T/C [9] of the same compound?
Answer: 97 % of control

Question: And the T/C [10]?
Answer: 100 % of control

Question: Which results are given for `N=c1ccn2c(n1)OC1C(O)C(CO)OC12` (configuration not stated)?
Answer: T/C [1]: 105 % of control; T/C (dose: 6.2 mg/kg/injection, schedule: Q01DX009 (ip), vehicle: saline): 100 % of control; T/C (dose: 12.0 mg/kg/injection, schedule: Q01DX009 (ip), vehicle: saline): 105 % of control; T/C (dose: 12.5 mg/kg/injection, schedule: Q01DX009 (ip), vehicle: saline): 114 % of control and 120 % of control; T/C [11]: 100 % of control; T/C (dose: 37.5 mg/kg/injection, schedule: Q01DX009 (ip), vehicle: saline): 111 % of control; T/C [12]: 111 % of control; T/C [13]: 102 % of control; T/C [14]: 91 % of control and 117 % of control; T/C [15]: 105 % of control and 111 % of control; T/C (dose: 300.0 mg/kg/injection, schedule: Q01DX001 (ip), vehicle: saline): 123 % of control; T/C (dose: 300.0 mg/kg/injection, schedule: Q01DX009 (ip), vehicle: saline): 153 % of control; T/C (dose: 500.0 mg/kg/injection, schedule: Q01DX009 (ip), vehicle: saline): 105 % of control; T/C (dose: 600.0 mg/kg/injection, schedule: Q04DX003 (ip), vehicle: saline): 168 % of control

Question: `O=C(/C=C/C(=O)Oc1ccc(Cl)cc1)Oc1ccc(Cl)cc1` was tested. Which T/C [4] did it give?
Answer: 92 % of control

Question: What about the T/C [7] of the same compound?
Answer: 89 % of control

Question: What about the T/C [9] of the same compound?
Answer: 107 % of control

Question: What does the source list for `Nc1nc(N)nc(N)n1`?
Answer: T/C [5]: 97 % of control; T/C [8]: 108 % of control; T/C [10]: 86 % of control; T/C (dose: 800.0 mg/kg/injection, schedule: Q04DX003 (ip), vehicle: Klucel (hydroxypropylcellulose) (HPC)): 105 % of control

Question: Which T/C [14] does the source give for `COc1cc2ccc(CC(=O)NCc3ccccc3)cc2cc1OC` here?
Answer: 117 % of control

Question: And the T/C [15]?
Answer: 107 % of control

Question: What about the T/C (dose: 200.0 mg/kg/injection, schedule: Q04DX003 (ip), vehicle: other) of the same compound?
Answer: 95 % of control

Question: What about the T/C [16] of the same compound?
Answer: 103 % of control

Question: `COc1cc([C@@H]2c3cc4c(cc3[C@@H](OC3OC5COC(C)OC5C(O)C3O)[C@H]3COC(=O)[C@H]23)OCO4)cc(OC)c1O` (some centres not stated) was tested. Which T/C (dose: 5.0 mg/kg/injection, schedule: Q01DX009 (ip), vehicle: Klucel (hydroxypropylcellulose) (HPC)) did it give?
Answer: 321 % of control

Question: Which T/C (dose: 80.0 mg/kg/injection, schedule: Q04DX003 (ip), vehicle: Klucel (hydroxypropylcellulose) (HPC)) does the source give for `CN(C)c1nc(N(C)C)nc(N(C)C)n1` here?
Answer: 111 % of control

Question: And the T/C (dose: 160.0 mg/kg/injection, schedule: Q04DX003 (ip), vehicle: Klucel (hydroxypropylcellulose) (HPC))?
Answer: 108 % of control

Question: With `C1CC2CCC[N+]3=C2C(C1)CCC3` (configuration not stated) as the compound, how does the T/C [2] read?
Answer: 100 % of control

Question: What about the T/C [3] of the same compound?
Answer: 100 % of control

Question: What about the T/C [12] of the same compound?
Answer: 108 % of control

Question: For `C/C=C(/Cl)c1c(C)cc(C)c(CC(=O)O)c1C`, which T/C [7] is on record?
Answer: 106 % of control

Question: And the T/C [9]?
Answer: 109 % of control

Question: With `O=C(O)c1ccc(SSc2ccc(C(=O)O)cn2)nc1` as the compound, how does the T/C (dose: 12.5 mg/kg/injection, schedule: Q01DX009 (ip), vehicle: Klucel (hydroxypropylcellulose) (HPC)) read?
Answer: 100 % of control

Question: What about the T/C (dose: 25.0 mg/kg/injection, schedule: Q01DX009 (ip), vehicle: Klucel (hydroxypropylcellulose) (HPC)) of the same compound?
Answer: 92 % of control

Question: And the T/C (dose: 50.0 mg/kg/injection, schedule: Q01DX009 (ip), vehicle: Klucel (hydroxypropylcellulose) (HPC))?
Answer: 102 % of control

Question: And the T/C [4]?
Answer: 95 % of control and 102 % of control

Question: And the T/C [7]?
Answer: 90 % of control and 92 % of control

Question: And the T/C [9]?
Answer: 95 % of control and 97 % of control

Question: How did the T/C [11] turn out when `O=C(O)C12CCC(CC1)C2` was run?
Answer: 110 % of control

Question: What about the T/C [13] of the same compound?
Answer: 102 % of control

Question: And the T/C [14]?
Answer: 103 % of control

Question: What about the T/C [6] of the same compound?
Answer: 100 % of control

Question: What about the T/C [15] of the same compound?
Answer: 105 % of control

Question: What about the T/C [16] of the same compound?
Answer: 105 % of control
